Data on three molecules can be found in patent US9321750B2, “ROR modulators and their uses” (INNOV17 LLC, priority 2012, dated 2016).

In assay [1] the test system is TH17 cells. The assay is described as follows: TH17 cellular proliferation (Prestoblue). It is filed as cell-based. The note with it: Homo sapiens, 120 h; 3 μM compound, after 5 day TH17 differentiation, relative to DMSO treated TH17 cells; read-out: % change in TH17 cell number.
The target of assay [2] is RORα LBD (Homo sapiens (Human), UniProt P35398). The assay is described as follows: TR-FRET co-activator D22 interaction with RORα LBD. It is filed as biochemical. (Time-resolved FRET reads energy transfer from a long-lived donor to a nearby acceptor.)
The target in assay [3] is T1, RORγ LBD (Homo sapiens (Human), UniProt P51449). The assay is described as follows: TR-FRET co-activator D22 interaction with RORγ LBD. The class given is biochemical.
The subject of assay [4] is IL-17F. The assay is described as follows: TH17 cytokine inhibition as measured by ELISA: IL-17F. The class given is cell-based. The settings on record: 120 h; human TH17 cells, 5 days differentiation, ELISA of supernatant. For orientation: In an ELISA, binding on a coated surface is turned into a signal by an enzyme label.
Assay [5] concerns IL-17A. The assay is described as follows: Real-time qRT-PCR in TH17 cells: IL-17A gene expression. The class given is cell-based, human. Details: key: A: No change in gene expression observed relative to DMSO treated Th17 cells; B: Decreased gene expression observed relative to DMSO treated Th17 cells; C: Increased gene expression observed relative to DMSO treated Th17 cells. As to the method: (§1) Peripheral blood mononuclear cells (PBMCs) were sourced from freshly prepared leukocyte enriched plasma (buffy coat) from healthy volunteers from which PBMCs were isolated by density gradient centrifugation using Ficoll-Paque™ PLUS (GE Healthcare). Naïve CD4+ T cells were isolated using the Naïve CD4+ T cell Isolation Kit II (Miltenyi Biotec) as per manufacturer's instructions. CD4+ T cells were plated at 5×10^4 cells/well in 96 well plates pre-coated with immobilized human (h)-αCD3 antibody (eBioscience) then differentiated to TH17 cells using h-αCD28, h-αIFNγ, h-αIL4, h-IL6, h-IL23, h-IL1β, h-TGFβ1 (eBioscience) and maintained in a cell culture incubator at 37° C. with 5% CO2 in TexMACS Medium (Miltenyi Biotec) supplemented with 1% Penicillin/Streptomycin (Lonza) over 5 days.
(§2) RNA was isolated from TH17 cells and cDNA was synthesized using the Verso cDNA kit (Thermo Scientific) as per manufacturer's instructions. IL-17A, IL-17F, IL-21, IL-22, G-CSF, IL-23R and FOXP3 gene expression were determined for compound treated and untreated TH17 cell samples using Solaris qPCR Gene expression assays (Thermo Scientific) with an iCycler iQ Real-Time PCR Detection System (Bio-Rad). Individual gene expression was normalized to a panel of six reference genes (ACTB, TBP, HPRT1, PGK1, TFRC and PPIA) (Thermo Scientific) and analyzed by REST 2009 (Qiagen) in accordance to MIQE guidelines (Bustin et al. (2009) Clin. Chem, 55:611-622). The effects of compounds on TH17 cytokine mRNA levels are presented as fold change in gene expression of compound treated TH17 cells relative to DMSO treated cells in the table below.
On the technique in general: In qPCR the cycle at which signal appears reflects the starting amount.

In assay [6] the test system is IL-22. The assay is described as follows: TH17 cytokine inhibition as measured by ELISA: IL-22. The note with it: 120 h; human TH17 cells, 5 days differentiation, ELISA of supernatant. It is filed as cell-based. As to the method:
as §1
Human CD4+ T cells were differentiated to TH17 cells as described in the presence or absence of various concentrations of compounds in a final concentration of 0.1% DMSO in TexMACS medium. Supernatants were collected and stored at −20° C. until they were to be assayed for IL-17A, IL-17F, IL-17AF, IL-21 and/or IL-22 levels as determined by Ready-Set-Go ELISA kits (eBioscience) as per manufacturer's instructions. Endpoint absorbance was read at 450 nm and 570 nm according to manufacturer's instructions (eBioscience) using a microplate reader (Perkin Elmer). The percentage of cytokine inhibition was calculated with reference to DMSO treated cells and the IC50s were determined by GraphPad Prism software and presented in the table below.

In assay [7] the test system is IL-23R. The assay is described as follows: Real-time qRT-PCR in TH17 cells: IL-23R gene expression. The class given is cell-based, human. Further details: key: A: No change in gene expression observed relative to DMSO treated Th17 cells; B: Decreased gene expression observed relative to DMSO treated Th17 cells; C: Increased gene expression observed relative to DMSO treated Th17 cells. The procedure: as §1, §2

Assay [8] addresses T1, RORγ LBD. The assay is described as follows: RORγ LBD binding (Human RORγ Assay System, INDIGO Biosciences). The settings on record: 0.5% DMSO. The procedure:
Compound binding to the human RORγ LBD was assessed using the Human RORγ Assay System (INDIGO Biosciences Inc.) as per manufacturer's instructions.

The subject of assay [9] is FOXP3. The assay is described as follows: Real-time qRT-PCR in TH17 cells: FOXP3 gene expression. The class given is cell-based, human. Further details: key: A: No change in gene expression observed relative to DMSO treated Th17 cells; B: Decreased gene expression observed relative to DMSO treated Th17 cells; C: Increased gene expression observed relative to DMSO treated Th17 cells. The procedure: as §1, §2

Assay [10] addresses T1, RORγ LBD. The assay is described as follows: TR-FRET co-repressor NCoR1-D2 interaction with RORγ LBD. The class given is biochemical.
The subject of assay [11] is IL-17F. The assay is described as follows: Real-time qRT-PCR in TH17 cells: IL-17F gene expression. Details: key: A: No change in gene expression observed relative to DMSO treated Th17 cells; B: Decreased gene expression observed relative to DMSO treated Th17 cells; C: Increased gene expression observed relative to DMSO treated Th17 cells. The class given is cell-based, human. The procedure:
as §1, §2

The mark [12] stands for this setting: 2 hr, read-out: RORα EC50 D22 co-activator displacement 2 hr.
Where [13] appears, read: 20 hr, read-out: RORα EC50 D22 co-activator displacement 20 hr.
The mark [14] stands for this setting: 2 hr, read-out: RORγ EC50 D22 co-activator displacement 2 hr.
Where [15] appears, read: 20 hr, read-out: RORγ EC50 D22 co-activator displacement 20 hr.
[16] abbreviates: 2 hr, read-out: RORγ EC50 NCoR1-D2 co-repressor recruitment 2 hr.
Setting [17] is: 20 hr, read-out: RORγ EC50 NCoR1-D2 co-repressor recruitment 20 hr.

Like-named read-outs stand apart in the source and are kept apart here. A value given as a limit tells only on which side of the number the result lay.

Chain of RORα LBD (P35398 272-510): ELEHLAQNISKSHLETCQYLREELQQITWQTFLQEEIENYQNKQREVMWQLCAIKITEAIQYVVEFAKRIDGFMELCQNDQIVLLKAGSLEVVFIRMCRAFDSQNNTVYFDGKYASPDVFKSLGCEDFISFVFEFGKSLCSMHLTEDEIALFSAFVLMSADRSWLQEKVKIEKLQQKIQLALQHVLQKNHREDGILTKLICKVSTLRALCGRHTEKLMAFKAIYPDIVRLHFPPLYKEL
T1 sequence (P51449 269-508): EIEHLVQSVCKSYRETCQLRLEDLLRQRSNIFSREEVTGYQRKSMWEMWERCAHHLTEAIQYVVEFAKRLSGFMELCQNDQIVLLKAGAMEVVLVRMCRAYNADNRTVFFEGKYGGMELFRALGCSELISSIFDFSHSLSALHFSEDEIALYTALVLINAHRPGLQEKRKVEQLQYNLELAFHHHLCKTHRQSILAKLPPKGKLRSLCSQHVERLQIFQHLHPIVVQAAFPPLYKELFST

In general, EC50 refers to the concentration that produces a half-maximal response. One may read the IC50 as the point on the concentration scale where inhibition reaches its midpoint. In the case of `CC(=O)Nc1ccc2c(c1)CCCN2Cc1ccc(C(O)(C(F)(F)F)C(F)(F)F)cc1` [Example 2, N-(1-(4-(1,1,1,3,3,3-hexafluoro-2-hydroxypropan-2-yl)benzyl)-1,2,3,4-tetrahydroquinolin-6-yl)acetamide], the inhibition at 3 µM in assay [1] is no more than 50%. Besides, the EC50 in [2] (setting [12]) was less than 30 µM; in assay [2] (setting [13]), greater than 30 µM; in assay [3] (setting [14]), less than 30 µM; in [3] (setting [15]), less than 30 µM; in [10] (setting [16]) it was greater than 30 µM; in assay [10] (setting [17]) it was greater than 30 µM. Moreover, the IC50 in [4], in [6] and in assay [8] was less than 10 µM each time. Besides, in [5], the “Fold change in mRNA level of compound treated TH17 cells relative to DMSO treated cells IL-17A” value is “A”. The “Fold change in mRNA level of compound treated TH17 cells relative to DMSO treated cells IL-23R” value in assay [7] was “A”. Further, the “Fold change in mRNA level of compound treated TH17 cells relative to DMSO treated cells FOXP3” value in assay [9] is given as “A”. Further, the “Fold change in mRNA level of compound treated TH17 cells relative to DMSO treated cells IL-17F” value in assay [11] was “A”.

Regarding `CC(=O)Nc1ccc2c(c1)CCN2Cc1ccc(C(O)(C(F)(F)F)C(F)(F)F)cc1` [Example 4, N-(1-(4-(1,1,1,3,3,3-hexafluoro-2-hydroxypropan-2-yl)benzyl)indolin-5-yl)acetamide], in assay [1], the inhibition at 3 µM is greater than 50%. Moreover, the EC50 in assay [2] (setting [12]) is greater than 30 µM; in assay [2] (setting [13]), greater than 30 µM; in [3] (setting [14]), less than 30 µM; in [3] (setting [15]), less than 30 µM; in assay [10] (setting [16]), less than 30 µM; in assay [10] (setting [17]) it was less than 30 µM. Moreover, the IC50 in assay [4], in [6] and in [8] was less than 10 µM in each case. For the same molecule, the “Fold change in mRNA level of compound treated TH17 cells relative to DMSO treated cells IL-17A” value in assay [5] is given as “B”. For the same molecule, the “Fold change in mRNA level of compound treated TH17 cells relative to DMSO treated cells IL-23R” value in assay [7] was “B”. Besides, the “Fold change in mRNA level of compound treated TH17 cells relative to DMSO treated cells FOXP3” value in [9] is “C”. The “Fold change in mRNA level of compound treated TH17 cells relative to DMSO treated cells IL-17F” value in assay [11] is “B”.

`CS(=O)(=O)Nc1ccc2c(c1)CCCN2Cc1ccc(C(O)(C(F)(F)F)C(F)(F)F)cc1` [Example 5, N-(1-(4-(1,1,1,3,3,3-hexafluoro-2-hydroxypropan-2-yl)benzyl)-1,2,3,4-tetrahydroquinolin-6-yl)methanesulfonamide]: the inhibition at 3 µM in assay [1] is no more than 50%. In addition, the EC50 in [2] (setting [12]) was less than 30 µM; in [2] (setting [13]), less than 30 µM; in assay [3] (setting [14]), greater than 30 µM; in assay [3] (setting [15]), less than 30 µM; in assay [10] (setting [16]), less than 30 µM; in assay [10] (setting [17]), less than 30 µM. Also, the IC50 in assay [4], in assay [6] and in assay [8] was less than 10 µM throughout. In assay [5], the “Fold change in mRNA level of compound treated TH17 cells relative to DMSO treated cells IL-17A” value is listed as “B”. The “Fold change in mRNA level of compound treated TH17 cells relative to DMSO treated cells IL-23R” value in assay [7] is “B”. Also, the “Fold change in mRNA level of compound treated TH17 cells relative to DMSO treated cells FOXP3” value in assay [9] is listed as “C”. Further, the “Fold change in mRNA level of compound treated TH17 cells relative to DMSO treated cells IL-17F” value in assay [11] is given as “B”.
